Data taken from ChEMBL document CHEMBL4196075, “Structure-based optimization of a series of selective BET inhibitors containing aniline or indoline groups” (Eur J Med Chem, 2018).

Assays:
Type in all cases: ADME, organism-based
Details in all cases: in vivo
[1] = AUC (0 to t) in ICR (CD-1) mouse at 20 mg/kg, po via gavage by mass spectrometric method
[2] = Cmax in ICR (CD-1) mouse at 20 mg/kg, po via gavage by mass spectrometric method; design: dose 20 mg/kg, route oral
[3] = Tmax in ICR (CD-1) mouse at 20 mg/kg, po via gavage by mass spectrometric method
[4] = Tmax in ICR (CD-1) mouse at […], po via gavage by mass spectrometric method
[5] = Cmax in ICR (CD-1) mouse at […], po via gavage by mass spectrometric method
[6] = AUC (0 to t) in ICR (CD-1) mouse at […], po via gavage by mass spectrometric method

AUC(0-t) [1]	Cmax [2]	Tmax [3]	Tmax [4]	Cmax [5]	AUC(0-t) [6]	Compound
2660 ng·h/mL	1780 ng/mL	18 min				Cc1ccc(NC(=O)c2ccc3c(c2)N(C2CC2)C(C)C(=O)N3C)c(C)c1 (centres undefined)
			19.8 min	189 ng/mL	383 ng·h/mL	Cc1ccc2c(c1)CCN2C(=O)c1ccc2c(n1)N(C1CC1)C(C)C(=O)N2C (centres undefined)
189 ng·h/mL	335 ng/mL	15 min				Cc1ccc2c(c1)CCN2C(=O)c1ccc2c(c1)N(C1CC1)C(C)C(=O)N2C (centres undefined)
